“And” between values parts separate entries of the source, which are not always exact repeats. Identical values can stand only once. Inconclusive results and toxic doses are left out. No stated cut-off is given here; in the data, active means T/C of 150% or more; inactive means T/C below 125%.
System: L1210 leukemia ip in BDF1 mice, survival T/C
Assay: NCI In Vivo Anticancer Drug Screen. Data for tumor model L1210 Leukemia (intraperitoneal) in B6D2F1 (BDF1) mice
Conditions: endpoint: mean survival time, higher = longer survival
Procedure, shortened: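 Ratio derived from survival: compound-dosed mice over vehicle-dosed mice, all bearing a transplantable tumor.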

[1] = dose: 100.0 mg/kg/injection, schedule: Q04DX002 (ip), vehicle: Klucel (hydroxypropylcellulose) (HPC)
[2] = dose: 100.0 mg/kg/injection, schedule: Q04DX003 (ip), vehicle: saline with Tween-80
[3] = dose: 200.0 mg/kg/injection, schedule: Q04DX002 (ip), vehicle: Klucel (hydroxypropylcellulose) (HPC)
[4] = dose: 200.0 mg/kg/injection, schedule: Q04DX003 (ip), vehicle: saline with Tween-80
[5] = dose: 400.0 mg/kg/injection, schedule: Q04DX003 (ip), vehicle: saline with Tween-80
[6] = dose: 100.0 mg/kg/injection, schedule: Q01DX001 (ip), vehicle: saline
[7] = dose: 100.0 mg/kg/injection, schedule: Q01DX009 (ip), vehicle: saline
[8] = dose: 100.0 mg/kg/injection, schedule: Q04DX002 (ip), vehicle: saline
[9] = dose: 100.0 mg/kg/injection, schedule: Q04DX003 (ip), vehicle: saline
[10] = dose: 200.0 mg/kg/injection, schedule: Q01DX001 (ip), vehicle: saline
[11] = dose: 200.0 mg/kg/injection, schedule: Q04DX002 (ip), vehicle: saline
[12] = dose: 200.0 mg/kg/injection, schedule: Q04DX003 (ip), vehicle: saline
[13] = dose: 400.0 mg/kg/injection, schedule: Q01DX001 (ip), vehicle: saline
[14] = dose: 400.0 mg/kg/injection, schedule: Q04DX003 (ip), vehicle: saline
[15] = dose: 100.0 mg/kg/injection, schedule: Q01DX009 (ip), vehicle: saline with Tween-80
[16] = dose: 200.0 mg/kg/injection, schedule: Q01DX009 (ip), vehicle: saline with Tween-80
[17] = dose: 100.0 mg/kg/injection, schedule: Q04DX003 (ip), vehicle: Klucel (hydroxypropylcellulose) (HPC)
[18] = dose: 200.0 mg/kg/injection, schedule: Q01DX009 (ip), vehicle: saline
[19] = dose: 400.0 mg/kg/injection, schedule: Q01DX009 (ip), vehicle: saline

Measured: T/C

O=C(O)C1C2CCCCC2=C2CCCCC2C1C(=O)O (stereo unspecified)
inactive: [1] 90 % of control | [2] 93 % of control | [3] 98 % of control | [4] 94 % of control | dose: 400.0 mg/kg/injection, schedule: Q04DX002 (ip), vehicle: Klucel (hydroxypropylcellulose) (HPC) 93 % of control | [5] 91 % of control

O=C(O)C1(O)CCCCC1
inactive: [6] 104 % of control | [7] 100 % of control | [8] 104 % of control | [9] 98 % of control | [10] 110 % of control | [11] 93 % of control | [12] 113 % of control | [13] 110 % of control | [14] 101 % of control

O=C(O)c1cccc2ccccc12
inactive: [15] 89 % of control | [16] 100 % of control

O=C(COc1ccc(Cl)cc1Cl)OCCCl
inactive: [1] 94 % of control | [3] 105 % of control

CN1N=C([P+](c2ccccc2)(c2ccccc2)c2ccccc2)CC1(c1ccccc1)c1ccccc1
inactive: dose: 75.0 mg/kg/injection, schedule: Q01DX001 (ip), vehicle: saline 103 % of control | dose: 150.0 mg/kg/injection, schedule: Q01DX001 (ip), vehicle: saline 100 % of control

CCN(CC)CCCC(C)Nc1ncnc2ncc3c(c12)CCCC3 (stereo unspecified)
inactive: [8] 102 % of control | [11] 98 % of control

c1ccc2c(c1)nnn1c3ccccc3nc21
inactive: dose: 25.0 mg/kg/injection, schedule: Q04DX003 (ip), vehicle: Klucel (hydroxypropylcellulose) (HPC) 102 % of control | dose: 50.0 mg/kg/injection, schedule: Q04DX003 (ip), vehicle: Klucel (hydroxypropylcellulose) (HPC) 94 % of control | dose: 100.0 mg/kg/injection, schedule: Q01DX001 (ip), vehicle: other 97 % of control | dose: 100.0 mg/kg/injection, schedule: Q01DX009 (ip), vehicle: other 101 % of control | [17] 104 % of control | dose: 200.0 mg/kg/injection, schedule: Q01DX001 (ip), vehicle: other 108 % of control and 92 % of control | dose: 200.0 mg/kg/injection, schedule: Q01DX009 (ip), vehicle: other 86 % of control | dose: 400.0 mg/kg/injection, schedule: Q01DX001 (ip), vehicle: other 95 % of control and 92 % of control | dose: 400.0 mg/kg/injection, schedule: Q01DX009 (ip), vehicle: other 90 % of control

O=C1c2cccc(O)c2C(=O)c2c(O)cccc21
inactive: [7] 94 % of control | [9] 93 % of control | [18] 97 % of control | [12] 97 % of control | [19] 103 % of control | [14] 97 % of control

CSc1ccc(C(CNC(C)=O)C(C#N)C#N)cc1 (stereo unspecified)
inactive: [6] 101 % of control | [10] 103 % of control | [13] 89 % of control

CCCCCCOC(=O)C1OC1(C)c1ccccc1 (stereo unspecified)
inactive: [8] 108 % of control | [11] 112 % of control | dose: 400.0 mg/kg/injection, schedule: Q04DX002 (ip), vehicle: saline 93 % of control

O=C(/C=C/c1ccccn1)c1ccccc1O
inactive: dose: 12.5 mg/kg/injection, schedule: Q04DX003 (ip), vehicle: saline with Tween-80 92 % of control | dose: 25.0 mg/kg/injection, schedule: Q04DX003 (ip), vehicle: saline with Tween-80 100 % of control | dose: 50.0 mg/kg/injection, schedule: Q04DX003 (ip), vehicle: saline with Tween-80 92 % of control

CC(=O)C(/C=N/C(=O)N(C)C)=C(/C)O
inactive: [2] 98 % of control | [4] 104 % of control | [5] 104 % of control

Oc1ccc(C2(c3ccc(O)cc3)CCCCC2)cc1
inactive: dose: 25.0 mg/kg/injection, schedule: Q01DX009 (ip), vehicle: alcohol 112 % of control | dose: 50.0 mg/kg/injection, schedule: Q01DX009 (ip), vehicle: alcohol 117 % of control | dose: 100.0 mg/kg/injection, schedule: Q01DX009 (ip), vehicle: alcohol 87 % of control | [15] 89 % of control | [16] 92 % of control

CCOC(=O)c1ccc(NCC(C)(C)[N+](=O)[O-])cc1
inactive: [7] 102 % of control | [9] 95 % of control | [18] 105 % of control | [12] 107 % of control | [19] 96 % of control and 105 % of control | [14] 91 % of control

N#C/C(=C1/C(=O)c2ccccc2-c2c1cccc2[N+](=O)[O-])c1ccccc1
inactive: dose: 75.0 mg/kg/injection, schedule: Q01DX001 (ip), vehicle: carboxymethylcellulose (CMC) 92 % of control | dose: 150.0 mg/kg/injection, schedule: Q01DX001 (ip), vehicle: carboxymethylcellulose (CMC) 94 % of control | dose: 300.0 mg/kg/injection, schedule: Q01DX001 (ip), vehicle: carboxymethylcellulose (CMC) 97 % of control

Cc1ccc(Nc2ccc(C)cc2[N+](=O)[O-])cc1
inactive: dose: 100.0 mg/kg/injection, schedule: Q01DX001 (ip), vehicle: carboxymethylcellulose (CMC) 105 % of control | dose: 200.0 mg/kg/injection, schedule: Q01DX001 (ip), vehicle: carboxymethylcellulose (CMC) 102 % of control | dose: 400.0 mg/kg/injection, schedule: Q01DX001 (ip), vehicle: carboxymethylcellulose (CMC) 94 % of control

CC[N+](=Cc1ccccc1)C1CCCCC1
inactive: [7] 88 % of control | [9] 100 % of control | [18] 93 % of control | [12] 97 % of control | [14] 108 % of control

COP(=O)(NC12CC3CC(CC(C3)C1)C2)OC
inactive: dose: 100.0 mg/kg/injection, schedule: Q01DX009 (ip), vehicle: Klucel (hydroxypropylcellulose) (HPC) 103 % of control | [17] 97 % of control | dose: 200.0 mg/kg/injection, schedule: Q01DX009 (ip), vehicle: Klucel (hydroxypropylcellulose) (HPC) 100 % of control | dose: 200.0 mg/kg/injection, schedule: Q04DX003 (ip), vehicle: Klucel (hydroxypropylcellulose) (HPC) 95 % of control | dose: 400.0 mg/kg/injection, schedule: Q01DX009 (ip), vehicle: Klucel (hydroxypropylcellulose) (HPC) 101 % of control | dose: 400.0 mg/kg/injection, schedule: Q04DX003 (ip), vehicle: Klucel (hydroxypropylcellulose) (HPC) 95 % of control

CCCCCCNC(=O)Nc1ccc(Cl)c(Cl)c1
inactive: [6] 98 % of control | [10] 101 % of control | [13] 95 % of control
